# Key:
# Format in all cases: cell-based
# Klebsiella pneumonia = assay: MIC against Gram-negative bacteria: Klebsiella pneumonia
# Summary of the method: (§1)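 The recombinant human-originated EGF domain proteins were serially diluted two-fold against bacteria at 5×10^5 CFU/mL in LB medium. After shaken incubation at 37° C, the lowest concentration with no bacterial growth was recorded as the MIC.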
# Citrobacter diversus = assay: MIC against Gram-negative bacteria: Citrobacter diversus
# Summary of the method: as §1
# Pseudomonas aeruginosa = assay: MIC against Gram-negative bacteria: Pseudomonas aeruginosa
# Summary of the method: as §1
# Enterobacter cloacae = assay: MIC against Gram-negative bacteria: Enterobacter cloacae
# Summary of the method: as §1
# Moraxella catarrhalis = assay: MIC against Gram-negative bacteria: Moraxella catarrhalis
# Summary of the method: as §1
# E. coli DH5α = assay: Antibacterial activity: MIC and growth curve against E. coli DH5α in 96-well plate; conditions: minimal inhibitory concentration against E. coli DH5α; 96-well plate, 5×10^5 CFU/mL, 37° C., judged after 8 h
# Summary of the method: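 Log-phase bacteria (OD600 ~0.5) resuspended in LB at 5×10^5 CFU/mL, exposed to recombinant protein at 50, 25, 12.5 μg/mL final in triplicate, 37 °C shaking at 175 rpm. OD600 read every 30 min; MIC is lowest concentration showing no growth.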
# E. coli BL21 = assay: MIC against Gram-negative bacteria: E. coli BL21
# Summary of the method: as §1
# Proteus mirabilis = assay: MIC against Gram-negative bacteria: Proteus mirabilis
# Summary of the method: as §1
# Proteus vulgaris = assay: MIC against Gram-negative bacteria: Proteus vulgaris
# Summary of the method: as §1
# Serratia marcescens = assay: MIC against Gram-negative bacteria: Serratia marcescens
# Summary of the method: as §1
# Aeromonas hydrophila = assay: MIC against Gram-negative bacteria: Aeromonas hydrophila
# Summary of the method: as §1
# [1] = Klebsiella pneumonia, 96-well plate, 5×10^5 CFU/mL, 37° C., 10 h
# [2] = Citrobacter diversus, 96-well plate, 5×10^5 CFU/mL, 37° C., 10 h
# [3] = Pseudomonas aeruginosa, 96-well plate, 5×10^5 CFU/mL, 37° C., 10 h
# [4] = Enterobacter cloacae, 96-well plate, 5×10^5 CFU/mL, 37° C., 10 h
# [5] = Moraxella catarrhalis, 96-well plate, 5×10^5 CFU/mL, 37° C., 10 h
# [6] = E. coli BL21, 96-well plate, 5×10^5 CFU/mL, 37° C., 10 h
# [7] = Proteus mirabilis, 96-well plate, 5×10^5 CFU/mL, 37° C., 10 h
# [8] = Proteus vulgaris, 96-well plate, 5×10^5 CFU/mL, 37° C., 10 h
# [9] = Serratia marcescens, 96-well plate, 5×10^5 CFU/mL, 37° C., 10 h
# [10] = Aeromonas hydrophila, 96-well plate, 5×10^5 CFU/mL, 37° C., 10 h
# [11] = 96-well plate, 5×10^5 CFU/mL, 37° C., 10 h
# [12] = K. pneumonia, 10 h cultivation at 37° C., 5×10^5 CFU/mL
# [13] = C. diversus, 10 h cultivation at 37° C., 5×10^5 CFU/mL
# [14] = P. aeruginosa, 10 h cultivation at 37° C., 5×10^5 CFU/mL
# [15] = E. cloacae, 10 h cultivation at 37° C., 5×10^5 CFU/mL
# [16] = M. catarrhalis, 10 h cultivation at 37° C., 5×10^5 CFU/mL
# [17] = E. coli BL21, 10 h cultivation at 37° C., 5×10^5 CFU/mL
# [18] = P. mirabilis, 10 h cultivation at 37° C., 5×10^5 CFU/mL
# [19] = P. vulgaris, 10 h cultivation at 37° C., 5×10^5 CFU/mL
# [20] = S. marcescens, 10 h cultivation at 37° C., 5×10^5 CFU/mL
# [21] = A. hydrophila, 10 h cultivation at 37° C., 5×10^5 CFU/mL
substance,measurement,setting,value
PRT1498 (PESPCLQNPCQNDGQCREQGATFTCECEVGYGGGLCM; listed as Homo sapiens),MIC (μg/mL) K. pneumonia,Klebsiella pneumonia; [1],12.5 µg/mL
same,MIC (μg/mL) C. diversus,Citrobacter diversus; [2],50 µg/mL
same,MIC (μg/mL) P. aeruginosa,Pseudomonas aeruginosa; [3],12.5 µg/mL
same,MIC (μg/mL) E. cloacae,Enterobacter cloacae; [4],50 µg/mL
same,MIC (μg/mL) M. catarrhalis,Moraxella catarrhalis; [5],12.5 µg/mL
same,MIC,E. coli DH5α,50 µg/mL
same,MIC (μg/mL) E. coli BL21,E. coli BL21; [6],25 µg/mL
same,MIC (μg/mL) P. mirabilis,Proteus mirabilis; [7],50 µg/mL
same,MIC (μg/mL) P. vulgaris,Proteus vulgaris; [8],12.5 µg/mL
same,MIC (μg/mL) S. marcescens,Serratia marcescens; [9],12.5 µg/mL
same,MIC (μg/mL) A. hydrophila,Aeromonas hydrophila; [10],12.5 µg/mL
PRT1291 (PIHACISNPCKHGGTCHLKEGEEDGFWCICADGFEGENCE; listed as Homo sapiens),MIC against K. pneumonia,Klebsiella pneumonia; [1],50 µg/mL
same,MIC against C. diversus,Citrobacter diversus; [2],50 µg/mL
same,MIC against P. aeruginosa,Pseudomonas aeruginosa; [3],25 µg/mL
same,MIC against E. cloacae,Enterobacter cloacae; [4],25 µg/mL
same,MIC against M. catarrhalis,Moraxella catarrhalis; [5],12.5 µg/mL
same,MIC,E. coli DH5α,50 µg/mL
same,MIC against E. coli BL21,E. coli BL21; [6],100 µg/mL
same,MIC against P. mirabilis,Proteus mirabilis; [7],50 µg/mL
same,MIC against P. vulgaris,Proteus vulgaris; [8],12.5 µg/mL
same,MIC against S. marcescens,Serratia marcescens; [9],12.5 µg/mL
same,MIC against A. hydrophila,Aeromonas hydrophila; [10],12.5 µg/mL
PRT456 (DIDECADSEACGEARCKNLPGSYSCLCDEGFAYSSQEKACR; listed as Homo sapiens),MIC against K. pneumonia,Klebsiella pneumonia; [11],12.5 µg/mL
same,MIC against C. diversus,Citrobacter diversus; [11],50 µg/mL
same,MIC against P. aeruginosa,Pseudomonas aeruginosa; [11],50 µg/mL
same,MIC against E. cloacae,Enterobacter cloacae; [11],12.5 µg/mL
same,MIC against M. catarrhalis,Moraxella catarrhalis; [11],12.5 µg/mL
same,MIC,E. coli DH5α,25 µg/mL
same,MIC against E. coli BL21,E. coli BL21; [11],12.5 µg/mL
same,MIC against P. mirabilis,Proteus mirabilis; [11],50 µg/mL
same,MIC against P. vulgaris,Proteus vulgaris; [11],12.5 µg/mL
same,MIC against S. marcescens,Serratia marcescens; [11],25 µg/mL
same,MIC against A. hydrophila,Aeromonas hydrophila; [11],12.5 µg/mL
PRT318 (DVDECEKNPCAGGECINNQGSYTCQCRAGYQSTLTRTECR; listed as Homo sapiens),MIC,Klebsiella pneumonia; [12],50 µg/mL
same,MIC,Citrobacter diversus; [13],12.5 µg/mL
same,MIC,Pseudomonas aeruginosa; [14],12.5 µg/mL
same,MIC,Enterobacter cloacae; [15],12.5 µg/mL
same,MIC,Moraxella catarrhalis; [16],50 µg/mL
same,MIC,E. coli DH5α,12.5 µg/mL
same,MIC,E. coli BL21; [17],12.5 µg/mL
same,MIC,Proteus mirabilis; [18],12.5 µg/mL
same,MIC,Proteus vulgaris; [19],25 µg/mL
same,MIC,Serratia marcescens; [20],50 µg/mL
same,MIC,Aeromonas hydrophila; [21],50 µg/mL
PRT962 (NVDDCSPDPCHHGRCVDGIASFSCACAPGYTGTRCE; listed as Homo sapiens),MIC,"Klebsiella pneumonia; K. pneumonia, 10 h cultivation at 37° C.",12.5 µg/mL
same,MIC,"Citrobacter diversus; C. diversus, 10 h cultivation at 37° C.",12.5 µg/mL
same,MIC,"Pseudomonas aeruginosa; P. aeruginosa, 10 h cultivation at 37° C.",25 µg/mL
same,MIC,"Enterobacter cloacae; E. cloacae, 10 h cultivation at 37° C.",25 µg/mL
same,MIC,"Moraxella catarrhalis; M. catarrhalis, 10 h cultivation at 37° C.",25 µg/mL
same,MIC,E. coli DH5α,25 µg/mL
same,MIC,"E. coli BL21; E. coli BL21, 10 h cultivation at 37° C.",50 µg/mL
same,MIC,"Proteus mirabilis; P. mirabilis, 10 h cultivation at 37° C.",50 µg/mL
same,MIC,"Proteus vulgaris; P. vulgaris, 10 h cultivation at 37° C.",12.5 µg/mL
same,MIC,"Serratia marcescens; S. marcescens, 10 h cultivation at 37° C.",25 µg/mL
same,MIC,"Aeromonas hydrophila; A. hydrophila, 10 h cultivation at 37° C.",50 µg/mL
PRT148 (LTDICSVSNGGCHPDASCSSTLGSLPLCTCLPGYTGN; listed as Homo sapiens),MIC (μg/mL) K. pneumonia,Klebsiella pneumonia; [12],12.5 µg/mL
same,MIC (μg/mL) C. diversus,Citrobacter diversus; [13],50 µg/mL
same,MIC (μg/mL) P. aeruginosa,Pseudomonas aeruginosa; [14],25 µg/mL
same,MIC (μg/mL) E. cloacae,Enterobacter cloacae; [15],50 µg/mL
same,MIC (μg/mL) M. catarrhalis,Moraxella catarrhalis; [16],12.5 µg/mL
same,MIC,E. coli DH5α,25 µg/mL
same,MIC (μg/mL) E. coli BL21,E. coli BL21; [17],50 µg/mL
same,MIC (μg/mL) P. mirabilis,Proteus mirabilis; [18],50 µg/mL
same,MIC (μg/mL) P. vulgaris,Proteus vulgaris; [19],12.5 µg/mL
same,MIC (μg/mL) S. marcescens,Serratia marcescens; [20],50 µg/mL
same,MIC (μg/mL) A. hydrophila,Aeromonas hydrophila; [21],12.5 µg/mL
PRT740 (GLNDCMHNNGQCGQLCLAIPGGHRCGCASHYTLDPSSRNCS; listed as Homo sapiens),MIC K. pneumonia,Klebsiella pneumonia; [11],12.5 µg/mL
same,MIC C. diversus,Citrobacter diversus; [11],12.5 µg/mL
same,MIC P. aeruginosa,Pseudomonas aeruginosa; [11],50 µg/mL
same,MIC E. cloacae,Enterobacter cloacae; [11],50 µg/mL
same,MIC M. catarrhalis,Moraxella catarrhalis; [11],50 µg/mL
same,MIC,E. coli DH5α,12.5 µg/mL
same,MIC E. coli BL21,E. coli BL21; [11],12.5 µg/mL
same,MIC P. mirabilis,Proteus mirabilis; [11],25 µg/mL
same,MIC P. vulgaris,Proteus vulgaris; [11],12.5 µg/mL
same,MIC S. marcescens,Serratia marcescens; [11],25 µg/mL
same,MIC A. hydrophila,Aeromonas hydrophila; [11],12.5 µg/mL
